Key:
CLK = details: ref SGC chemical probe website (thesgc.org/chemical-probes/MU1210, /T3-CLK); cited from earlier work
[1] = test system: pSR and CLK2 localization, U118-MG and MDA-MB-435 cells; assay: Immunofluorescence of pSR and CLK2 localization; type: cell-based; details: 500 nM, over the course of 60 min
ERK8 (MAPK15) = ERK8 (MAPK15) (Homo sapiens, UniProt Q8TD08); assay: KINOMEscan scanMAX binding
[2] = test system: CLK2 or pSR distribution, BT-20; assay: Immunofluorescence of pSR and CLK2 localization; type: cell-based
[3] = test system: SR phosphorylation (pSR), U118-MG cells; assay: Western blot of phosphorylated SR proteins; type: cell-based
BT-20 = assay: Crystal violet cell proliferation; type: cell-based; details: BT-20, denoted concentrations, 7 days (Fig. 6a)
HIPK2 [4] = target: T1, HIPK2 (Homo sapiens, UniProt Q9H2X6); assay: Eurofins enzymatic assay; type: biochemical
CLK1 [5] = target: T2, CLK1 (Homo sapiens, UniProt P49759); assay: NanoBRET in-cell target engagement; type: cell-based
STK16 [6] = target: T3, STK16 (Homo sapiens, UniProt O75716); assay: Eurofins enzymatic assay; type: biochemical
STK16 [7] = target: T3, STK16; assay: NanoBRET in-cell target engagement; type: cell-based
MDA-MB-435 = assay: Crystal violet cell proliferation; type: cell-based; details: MDA-MB-435, denoted concentrations, 7 days (Fig. 6a)
[8] = test system: 100 different cancer cell lines; assay: ProQinase CL100 cancer cell line panel; type: cell-based; details: of 100 cell lines tested, CellTiter-Glo
HIPK1 [9] = target: T4, HIPK1 (Homo sapiens, UniProt Q86Z02); assay: Eurofins enzymatic assay; type: biochemical
HIPK1 [10] = target: T4, HIPK1; assay: NanoBRET in-cell target engagement; type: cell-based
HIPK2 [11] = target: T1, HIPK2; assay: NanoBRET in-cell target engagement; type: cell-based
U118-MG = assay: Crystal violet cell proliferation; type: cell-based; details: denoted concentrations, 7 days (Fig. 6a)
CLK4 [12] = target: T5, CLK4 (Homo sapiens, UniProt Q9HAZ1); assay: Eurofins enzymatic assay; type: biochemical
[13] = test system: 403 wildtype (WT) human as well as several mutant and nonhuman kinases; type: binding; details: no kinase bound below this PoC
CLK4 [14] = target: T5, CLK4; assay: NanoBRET in-cell target engagement; type: cell-based
CLK2 [15] = target: T6, CLK2 (Homo sapiens, UniProt P49760); assay: Eurofins enzymatic assay; type: biochemical
CLK2 [16] = target: T6, CLK2; assay: Luceome KinaseSeeker binding; details: read-out: KinaseSeeker activity remaining
CLK2 [17] = target: T6, CLK2; assay: NanoBRET in-cell target engagement; type: cell-based
CLK1 [18] = target: T2, CLK1; assay: Luceome KinaseSeeker binding; details: read-out: KinaseSeeker activity remaining
CLK4 [19] = assay: Luceome KinaseSeeker binding; details: CLK4, 1 μM
CLK1 [20] = target: T2, CLK1; assay: Eurofins enzymatic assay; type: biochemical
CLK3 = CLK3 (Homo sapiens, UniProt P49761); assay: Eurofins enzymatic assay; type: biochemical

T2 sequence (P49759 whole entry): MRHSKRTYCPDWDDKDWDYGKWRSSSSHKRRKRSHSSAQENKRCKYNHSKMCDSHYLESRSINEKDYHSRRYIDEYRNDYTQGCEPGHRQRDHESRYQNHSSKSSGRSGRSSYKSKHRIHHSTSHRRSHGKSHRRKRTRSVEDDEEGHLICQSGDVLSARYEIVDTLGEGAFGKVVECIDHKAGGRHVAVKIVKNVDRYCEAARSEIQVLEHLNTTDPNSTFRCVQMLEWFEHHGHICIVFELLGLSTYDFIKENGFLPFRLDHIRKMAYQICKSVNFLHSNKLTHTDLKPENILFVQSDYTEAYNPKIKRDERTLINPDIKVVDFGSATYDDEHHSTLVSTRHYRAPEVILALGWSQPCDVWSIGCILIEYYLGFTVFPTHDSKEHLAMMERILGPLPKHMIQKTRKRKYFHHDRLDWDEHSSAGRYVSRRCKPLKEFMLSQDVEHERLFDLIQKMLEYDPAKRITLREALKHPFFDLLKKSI
T6 sequence (P49760 whole entry): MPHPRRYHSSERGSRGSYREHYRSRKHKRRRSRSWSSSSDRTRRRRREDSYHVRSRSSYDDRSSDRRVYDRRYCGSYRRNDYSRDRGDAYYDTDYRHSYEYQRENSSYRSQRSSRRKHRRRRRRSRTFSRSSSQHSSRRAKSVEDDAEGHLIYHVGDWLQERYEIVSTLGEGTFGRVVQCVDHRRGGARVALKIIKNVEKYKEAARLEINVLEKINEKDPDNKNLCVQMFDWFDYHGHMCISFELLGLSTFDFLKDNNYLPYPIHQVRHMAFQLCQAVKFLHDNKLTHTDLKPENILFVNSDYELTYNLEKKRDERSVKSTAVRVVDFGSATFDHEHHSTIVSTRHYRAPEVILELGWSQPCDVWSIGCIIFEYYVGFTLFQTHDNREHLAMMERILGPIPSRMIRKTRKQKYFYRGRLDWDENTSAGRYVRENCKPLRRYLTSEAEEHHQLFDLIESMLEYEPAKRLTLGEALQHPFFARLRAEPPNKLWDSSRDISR
T3 sequence (O75716 whole entry): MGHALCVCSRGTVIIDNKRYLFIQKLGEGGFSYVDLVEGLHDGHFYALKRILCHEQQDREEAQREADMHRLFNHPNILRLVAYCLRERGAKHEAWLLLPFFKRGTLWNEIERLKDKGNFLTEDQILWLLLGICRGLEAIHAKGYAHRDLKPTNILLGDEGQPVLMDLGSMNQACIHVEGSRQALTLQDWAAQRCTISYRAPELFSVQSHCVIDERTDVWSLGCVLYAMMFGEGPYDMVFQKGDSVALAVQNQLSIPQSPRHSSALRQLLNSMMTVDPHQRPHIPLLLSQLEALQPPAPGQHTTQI
T1 sequence (Q9H2X6 whole entry): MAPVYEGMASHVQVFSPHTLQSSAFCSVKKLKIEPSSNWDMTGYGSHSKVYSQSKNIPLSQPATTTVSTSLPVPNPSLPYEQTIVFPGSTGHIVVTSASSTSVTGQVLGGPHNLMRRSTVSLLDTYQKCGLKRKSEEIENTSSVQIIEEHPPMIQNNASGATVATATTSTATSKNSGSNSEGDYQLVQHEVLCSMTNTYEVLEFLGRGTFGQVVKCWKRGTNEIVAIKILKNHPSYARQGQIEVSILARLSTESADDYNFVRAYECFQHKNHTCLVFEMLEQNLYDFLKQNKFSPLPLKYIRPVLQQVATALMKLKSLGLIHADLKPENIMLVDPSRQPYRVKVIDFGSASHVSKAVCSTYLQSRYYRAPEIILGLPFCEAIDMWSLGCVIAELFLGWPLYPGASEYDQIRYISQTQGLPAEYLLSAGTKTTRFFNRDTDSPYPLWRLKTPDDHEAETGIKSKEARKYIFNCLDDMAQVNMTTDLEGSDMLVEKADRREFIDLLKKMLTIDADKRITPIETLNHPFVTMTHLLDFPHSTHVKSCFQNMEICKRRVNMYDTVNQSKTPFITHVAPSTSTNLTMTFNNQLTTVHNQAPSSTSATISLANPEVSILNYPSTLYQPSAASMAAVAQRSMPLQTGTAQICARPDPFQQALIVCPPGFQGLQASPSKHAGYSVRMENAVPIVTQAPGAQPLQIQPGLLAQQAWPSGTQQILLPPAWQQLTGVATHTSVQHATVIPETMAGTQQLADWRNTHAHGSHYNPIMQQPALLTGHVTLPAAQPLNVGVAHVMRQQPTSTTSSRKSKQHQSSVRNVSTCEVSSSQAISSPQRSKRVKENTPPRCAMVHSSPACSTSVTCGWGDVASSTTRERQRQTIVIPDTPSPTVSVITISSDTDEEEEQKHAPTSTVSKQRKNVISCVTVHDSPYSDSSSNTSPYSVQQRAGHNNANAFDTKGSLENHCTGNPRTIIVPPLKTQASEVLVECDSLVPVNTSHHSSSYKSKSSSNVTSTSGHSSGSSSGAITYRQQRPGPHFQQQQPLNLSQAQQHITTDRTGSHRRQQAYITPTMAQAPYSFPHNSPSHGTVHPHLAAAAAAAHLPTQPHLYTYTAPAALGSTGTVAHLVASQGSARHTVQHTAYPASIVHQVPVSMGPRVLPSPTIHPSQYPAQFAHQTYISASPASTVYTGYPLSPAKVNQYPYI
T5 sequence (Q9HAZ1 whole entry): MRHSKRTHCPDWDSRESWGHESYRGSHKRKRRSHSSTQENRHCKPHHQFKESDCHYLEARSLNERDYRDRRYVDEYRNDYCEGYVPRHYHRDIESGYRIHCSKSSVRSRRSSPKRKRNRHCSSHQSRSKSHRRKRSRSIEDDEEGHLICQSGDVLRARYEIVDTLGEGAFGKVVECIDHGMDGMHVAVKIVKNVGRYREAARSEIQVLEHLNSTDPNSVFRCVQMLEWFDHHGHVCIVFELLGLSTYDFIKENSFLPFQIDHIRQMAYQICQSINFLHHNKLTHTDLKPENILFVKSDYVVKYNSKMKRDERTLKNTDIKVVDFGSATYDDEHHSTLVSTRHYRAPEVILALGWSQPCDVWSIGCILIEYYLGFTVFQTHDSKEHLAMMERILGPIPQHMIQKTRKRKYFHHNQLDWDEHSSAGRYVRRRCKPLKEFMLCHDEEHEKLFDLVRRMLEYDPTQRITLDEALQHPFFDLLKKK
Sequence of ERK8 (MAPK15) (Q8TD08 whole entry): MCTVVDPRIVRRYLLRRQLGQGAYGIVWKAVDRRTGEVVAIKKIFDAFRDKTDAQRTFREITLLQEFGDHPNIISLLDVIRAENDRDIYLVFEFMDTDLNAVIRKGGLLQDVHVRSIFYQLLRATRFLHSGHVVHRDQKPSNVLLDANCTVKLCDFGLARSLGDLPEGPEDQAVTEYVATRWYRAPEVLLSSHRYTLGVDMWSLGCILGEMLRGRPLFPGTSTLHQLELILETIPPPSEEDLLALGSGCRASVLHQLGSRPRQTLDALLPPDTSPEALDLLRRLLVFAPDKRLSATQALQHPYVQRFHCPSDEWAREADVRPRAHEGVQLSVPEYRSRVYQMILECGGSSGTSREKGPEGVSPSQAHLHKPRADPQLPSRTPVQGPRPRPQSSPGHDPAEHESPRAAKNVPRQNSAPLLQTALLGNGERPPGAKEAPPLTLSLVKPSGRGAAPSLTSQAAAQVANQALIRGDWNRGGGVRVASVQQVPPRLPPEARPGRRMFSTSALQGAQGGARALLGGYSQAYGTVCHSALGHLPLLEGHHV
T4 sequence (Q86Z02 whole entry): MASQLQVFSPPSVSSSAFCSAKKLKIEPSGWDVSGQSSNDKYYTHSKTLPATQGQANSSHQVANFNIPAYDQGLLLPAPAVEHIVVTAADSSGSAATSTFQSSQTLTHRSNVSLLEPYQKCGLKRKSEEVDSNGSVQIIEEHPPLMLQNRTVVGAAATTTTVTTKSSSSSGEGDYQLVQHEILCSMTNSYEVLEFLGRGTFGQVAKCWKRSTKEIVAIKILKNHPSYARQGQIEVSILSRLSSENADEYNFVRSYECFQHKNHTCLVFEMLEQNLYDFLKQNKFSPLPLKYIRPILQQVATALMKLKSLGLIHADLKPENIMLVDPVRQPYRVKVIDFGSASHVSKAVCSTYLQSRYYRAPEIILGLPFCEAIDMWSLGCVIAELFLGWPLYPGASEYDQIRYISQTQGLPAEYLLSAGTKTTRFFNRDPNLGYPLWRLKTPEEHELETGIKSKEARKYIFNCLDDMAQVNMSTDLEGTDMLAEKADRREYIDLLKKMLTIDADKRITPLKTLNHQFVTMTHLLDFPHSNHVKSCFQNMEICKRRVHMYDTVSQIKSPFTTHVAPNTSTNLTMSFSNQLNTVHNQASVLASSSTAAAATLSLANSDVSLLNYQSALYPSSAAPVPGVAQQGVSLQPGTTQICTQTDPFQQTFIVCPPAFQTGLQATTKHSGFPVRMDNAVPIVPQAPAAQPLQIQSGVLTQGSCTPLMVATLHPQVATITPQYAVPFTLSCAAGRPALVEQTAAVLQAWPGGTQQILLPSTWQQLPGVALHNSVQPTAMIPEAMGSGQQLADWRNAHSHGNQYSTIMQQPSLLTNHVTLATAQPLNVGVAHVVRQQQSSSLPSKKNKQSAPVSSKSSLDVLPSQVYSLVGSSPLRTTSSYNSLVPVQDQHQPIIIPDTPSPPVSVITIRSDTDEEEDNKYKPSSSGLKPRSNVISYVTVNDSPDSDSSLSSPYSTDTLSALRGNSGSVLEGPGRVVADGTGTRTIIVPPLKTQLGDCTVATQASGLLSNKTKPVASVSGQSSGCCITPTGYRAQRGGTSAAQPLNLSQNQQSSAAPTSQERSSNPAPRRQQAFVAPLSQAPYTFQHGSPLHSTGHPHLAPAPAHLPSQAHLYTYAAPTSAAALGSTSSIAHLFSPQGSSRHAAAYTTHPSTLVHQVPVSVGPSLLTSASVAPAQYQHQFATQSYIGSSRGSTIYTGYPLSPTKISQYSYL

Cn1cc(-c2ccc3occ(-c4cccc(-c5ccncc5)c4)c3n2)cn1 [Compound 1, reference compound]
Activity in the CLK nanoBRET assays (CLK): active
Effect on pSR and CLK2 localization [1]: did not show any effect on pSR or CLK2 localization

COc1cc(Nc2nccc(-c3cnn4nc(OC)ccc34)n2)cc(C(F)(F)F)c1 [SGC-CLK-1, N-(3-methoxy-5-(trifluoromethyl)phenyl)-4-(6-methoxypyrazolo[1,5-b]pyridazin-3-yl) pyrimidin-2-amine]
% Control (1 μM) (ERK8 (MAPK15); ERK8 (MAPK15), 1 μM): 21%
remaining binding at 1 µM (ERK8 (MAPK15); read-out: % Control (1 μM), ERK8 (MAPK15), 1 μM): < 35%
Effect on CLK2 or pSR distribution [2]: did not observe a difference in CLK2 or pSR distribution
Change in SR phosphorylation (pSR) ([3]; 1 μM, highest treatment condition): did not detect significant pSR changes
Change in SR phosphorylation (pSR) ([3]; 5 μM, 30 min post treatment, U118-MG): decrease in SR phosphorylation
Effect on cell growth (crystal violet) (BT-20): no growth change
IC50 (HIPK2 [4]): 42 nM
IC50 (CLK1 [5]; Cellular IC50 (NanoBRET), CLK1, HEK293, Tracer K5): 154 ± 50 nM
IC50 (STK16 [6]): 49 nM
NanoBRET binding (in words) (STK16 [7]): only partial inhibition
Effect on cell growth (crystal violet) (MDA-MB-435): dose-dependent decrease in the growth
Cell lines with IC50 for inhibiting proliferation <250 nM [8]: 27/100
IC50 (HIPK1 [9]): 50 nM
IC50 (HIPK1 [10]): > 10000 nM
IC50 (HIPK2 [11]): > 10000 nM
Effect on pSR and CLK2 localization [1]: significant changes in the cellular distribution of both pSRs and CLK2
Effect on cell growth (crystal violet) (U118-MG): dose-dependent decrease in the growth

CCOc1ccc2c(-c3cc(C)nc(Nc4cc(OC)cc(C(F)(F)F)c4)n3)cnn2n1 [SGC-CLK-1N, 4-(6-ethoxypyrazolo [1,5-b]pyridazin-3-yl)-N-(3-methoxy-5-(trifluoromethyl)phenyl)-6-methylpyrimidin-2-amine]
Enzymatic inhibition (in words) (CLK4 [12]): no inhibition
PoC of any kinase in the KINOMEscan panel [13]: ≥ 45
Effect on CLK2 or pSR distribution [2]: did not observe a difference in CLK2 or pSR distribution
NanoBRET activity (in words) (CLK4 [14]): inactive
NanoBRET activity (in words) (CLK1 [5]; CLK1): inactive
Enzymatic inhibition (in words) (CLK2 [15]): no inhibition
remaining activity at 1 µM (CLK2 [16]): 100%
Effect on cell growth (crystal violet) (MDA-MB-435): little effect
NanoBRET activity (in words) (CLK2 [17]): inactive
remaining activity at 1 µM (CLK1 [18]): 100%
KinaseSeeker activity remaining (CLK4 [19]): 100%
Enzymatic inhibition (in words) (CLK1 [20]): no inhibition
Effect on cell growth (crystal violet) (U118-MG): little effect
Enzymatic inhibition (in words) (CLK3): no inhibition

From publication PMC10673624 (Current research in chemical biology, 2023)
